# Assay results: patent publication US12264155B2, “Compounds, pharmaceutical compositions, and methods of preparing compounds and of their use as ATR kinase inhibitors” (Repare Therapeutics Inc., priority 2018, dated 2025)
# Target: ATR/ATRIP (Homo sapiens (Human), UniProt Q13535)
# Experiment: ATR/ATRIP enzymatic assay (AlphaScreen, phosphorylation of p53)
# Details: not given
# ATR/ATRIP, sequence (Q13535 whole entry): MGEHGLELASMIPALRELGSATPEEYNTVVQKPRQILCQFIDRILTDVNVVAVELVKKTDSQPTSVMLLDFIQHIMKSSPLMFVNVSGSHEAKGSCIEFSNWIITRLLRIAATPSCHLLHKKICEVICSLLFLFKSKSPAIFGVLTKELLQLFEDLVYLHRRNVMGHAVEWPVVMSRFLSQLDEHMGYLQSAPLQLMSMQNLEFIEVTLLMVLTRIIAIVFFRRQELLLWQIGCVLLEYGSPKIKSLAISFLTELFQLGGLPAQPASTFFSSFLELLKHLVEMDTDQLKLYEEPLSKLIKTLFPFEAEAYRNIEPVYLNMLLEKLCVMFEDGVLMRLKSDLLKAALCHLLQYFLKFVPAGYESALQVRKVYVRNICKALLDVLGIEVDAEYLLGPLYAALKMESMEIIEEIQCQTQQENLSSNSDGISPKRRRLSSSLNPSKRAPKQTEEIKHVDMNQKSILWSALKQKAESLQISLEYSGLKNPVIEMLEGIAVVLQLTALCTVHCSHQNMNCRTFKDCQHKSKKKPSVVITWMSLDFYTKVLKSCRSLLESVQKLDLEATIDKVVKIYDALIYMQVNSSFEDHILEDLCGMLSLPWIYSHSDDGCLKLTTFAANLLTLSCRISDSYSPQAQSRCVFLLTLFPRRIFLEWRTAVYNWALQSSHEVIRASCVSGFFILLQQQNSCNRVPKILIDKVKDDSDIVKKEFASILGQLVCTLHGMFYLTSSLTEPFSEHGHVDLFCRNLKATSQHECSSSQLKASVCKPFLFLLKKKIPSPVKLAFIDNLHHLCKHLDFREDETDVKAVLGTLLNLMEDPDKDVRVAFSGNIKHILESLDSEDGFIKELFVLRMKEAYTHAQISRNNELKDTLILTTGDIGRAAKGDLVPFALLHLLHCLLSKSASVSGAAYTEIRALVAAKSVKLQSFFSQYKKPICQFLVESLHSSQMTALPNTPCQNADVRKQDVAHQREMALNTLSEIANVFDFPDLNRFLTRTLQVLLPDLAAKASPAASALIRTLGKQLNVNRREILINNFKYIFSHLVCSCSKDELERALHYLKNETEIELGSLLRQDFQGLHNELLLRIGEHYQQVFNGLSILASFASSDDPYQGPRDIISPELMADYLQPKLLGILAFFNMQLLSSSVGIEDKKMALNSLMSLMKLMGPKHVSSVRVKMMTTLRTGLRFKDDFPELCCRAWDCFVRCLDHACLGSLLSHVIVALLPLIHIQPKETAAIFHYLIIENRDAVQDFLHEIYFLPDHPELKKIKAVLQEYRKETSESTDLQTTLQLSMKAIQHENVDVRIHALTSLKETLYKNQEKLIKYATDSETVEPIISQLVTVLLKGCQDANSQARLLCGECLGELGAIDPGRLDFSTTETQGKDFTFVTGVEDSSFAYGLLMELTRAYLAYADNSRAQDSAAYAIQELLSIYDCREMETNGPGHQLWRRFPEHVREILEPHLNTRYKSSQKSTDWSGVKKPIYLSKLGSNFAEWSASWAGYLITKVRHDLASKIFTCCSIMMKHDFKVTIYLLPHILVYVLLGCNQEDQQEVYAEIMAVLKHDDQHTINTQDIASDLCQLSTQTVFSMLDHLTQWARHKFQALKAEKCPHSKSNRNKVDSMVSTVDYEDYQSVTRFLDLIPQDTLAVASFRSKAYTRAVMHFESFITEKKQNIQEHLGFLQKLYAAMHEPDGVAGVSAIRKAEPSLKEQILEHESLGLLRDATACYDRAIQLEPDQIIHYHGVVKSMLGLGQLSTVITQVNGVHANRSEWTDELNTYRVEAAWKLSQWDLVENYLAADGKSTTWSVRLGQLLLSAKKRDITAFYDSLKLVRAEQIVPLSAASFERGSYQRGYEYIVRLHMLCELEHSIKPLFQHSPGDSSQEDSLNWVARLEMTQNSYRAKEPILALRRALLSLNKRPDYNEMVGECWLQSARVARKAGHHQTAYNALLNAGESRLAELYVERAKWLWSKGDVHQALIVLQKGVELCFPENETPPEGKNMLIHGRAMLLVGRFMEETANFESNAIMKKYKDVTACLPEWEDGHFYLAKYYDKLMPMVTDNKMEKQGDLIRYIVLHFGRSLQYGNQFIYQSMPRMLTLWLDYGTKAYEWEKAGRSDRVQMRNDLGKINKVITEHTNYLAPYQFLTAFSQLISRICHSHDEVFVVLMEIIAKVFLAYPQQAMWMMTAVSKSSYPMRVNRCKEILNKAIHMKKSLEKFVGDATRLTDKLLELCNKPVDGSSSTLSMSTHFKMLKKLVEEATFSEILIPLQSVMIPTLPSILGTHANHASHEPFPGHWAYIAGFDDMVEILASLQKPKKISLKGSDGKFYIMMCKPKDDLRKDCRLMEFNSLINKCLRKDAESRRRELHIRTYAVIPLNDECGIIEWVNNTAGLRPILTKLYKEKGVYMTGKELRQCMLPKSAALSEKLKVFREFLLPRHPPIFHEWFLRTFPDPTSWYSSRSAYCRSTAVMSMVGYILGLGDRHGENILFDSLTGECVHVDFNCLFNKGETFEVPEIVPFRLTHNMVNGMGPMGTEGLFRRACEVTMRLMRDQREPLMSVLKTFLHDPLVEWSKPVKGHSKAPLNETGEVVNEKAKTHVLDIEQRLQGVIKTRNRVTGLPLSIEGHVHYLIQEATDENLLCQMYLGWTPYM
# ATR/ATRIP, sequence (Q8WXE1 whole entry partner): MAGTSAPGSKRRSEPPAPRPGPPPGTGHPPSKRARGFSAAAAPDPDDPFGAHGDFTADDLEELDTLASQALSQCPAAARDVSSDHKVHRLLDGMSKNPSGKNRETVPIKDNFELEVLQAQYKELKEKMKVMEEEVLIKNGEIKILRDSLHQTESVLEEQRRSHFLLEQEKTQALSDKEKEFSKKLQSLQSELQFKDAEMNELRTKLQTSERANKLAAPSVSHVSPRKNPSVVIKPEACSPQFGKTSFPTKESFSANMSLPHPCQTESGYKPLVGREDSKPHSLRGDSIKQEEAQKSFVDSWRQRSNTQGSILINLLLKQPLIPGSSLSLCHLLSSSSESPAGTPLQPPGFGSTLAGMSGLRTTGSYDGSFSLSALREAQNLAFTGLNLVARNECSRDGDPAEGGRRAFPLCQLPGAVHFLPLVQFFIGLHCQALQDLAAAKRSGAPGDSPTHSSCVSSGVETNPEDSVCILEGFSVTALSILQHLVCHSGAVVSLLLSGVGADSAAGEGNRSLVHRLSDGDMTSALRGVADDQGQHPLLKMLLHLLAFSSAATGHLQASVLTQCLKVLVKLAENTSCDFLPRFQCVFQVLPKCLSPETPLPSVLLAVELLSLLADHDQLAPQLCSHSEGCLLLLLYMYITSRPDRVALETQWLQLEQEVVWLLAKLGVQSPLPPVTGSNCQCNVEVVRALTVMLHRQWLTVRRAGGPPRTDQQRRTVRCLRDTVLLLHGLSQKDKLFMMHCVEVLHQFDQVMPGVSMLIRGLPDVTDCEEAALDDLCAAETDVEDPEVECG
row,Compound,IC50 [nM]
1,C[C@@H]1COCCN1c1cc(C(C)(C)C#N)c2cnn(Cc3ccn[nH]3)c2n1 [Compound 66],448

# Same assay, conditions: read-out: ATR IC50; recombinant ATR/ATRIP 0.63 nM, 25 nM GST-p53, 3 μM ATP, 1 hour room temperature
row,Compound,IC50 [nM]
1,"C[C@@H]1COCCN1c1cc(C2(C#N)CCCCC2)c2cnn(-c3cc[nH]n3)c2n1 [Compound 5, (R)-1-(6-(3-methylmorpholino)-1-(1H-pyrazol-3-yl)-1H-pyrazolo[3,4-b]pyridin-4-yl)cyclohexane-1-carbonitrile]",3
2,Cc1ccnc(-n2ncc3c(C(C)(C)O)cc(N4CCOC[C@H]4C)nc32)c1 [Compound 64],92
3,Cc1ccncc1-c1cc(N2CCOC[C@H]2C)nc2c1ccn2-c1cc[nH]n1 [Compound 9],37
4,C[C@@H]1COCCN1c1cc(C(C)(C)O)c2ccn(-c3cc[nH]n3)c2n1 [Compound 10],1600
5,C[C@@H]1COCCN1c1cc(C2(S(C)(=O)=O)CC2)c2ccn(-c3cn[nH]c3)c2n1 [Compound 38],> 1000
6,C[C@@H]1COCCN1c1cc(C(=O)N(C)Cc2ccccc2)c2ccn(-c3cc[nH]n3)c2n1 [Compound 19],540
7,C[C@@H]1COCCN1c1cc(C2(C#N)CN(C(=O)OC(C)(C)C)C2)c2cnn(-c3cc[nH]n3)c2n1 [Compound 79],30
8,C[C@@H]1COCCN1c1cc(-c2ccccc2F)c2cnn(-c3ccn[nH]3)c2n1 [Compound 91],< 5
9,C[C@@H]1COCCN1c1cc(CC#N)c2cnn(-c3cc[nH]n3)c2n1 [Compound 32],54
10,C[C@@H]1COCCN1c1cc(C2(C#N)CCS(=O)(=O)CC2)c2cnn(-c3cc[nH]n3)c2n1 [Compound 76],36
11,C[C@@H]1COCCN1c1cc(N2CCCCS2(=O)=O)c2cnn(-c3cc[nH]n3)c2n1 [Compound 53],9
12,C[C@@H]1COCCN1c1cc(C2(O)CCC3(CC2)CSC3)c2cnn(-c3cc[nH]n3)c2n1 [Compound 61],2
13,C[C@@H]1COCCN1c1cc(C2(C#N)CCSCC2)c2cnn(-c3cc[nH]n3)c2n1 [Compound 74],8
14,C[C@@H]1COCCN1c1cc(N(C)S(C)(=O)=O)c2cnn(-c3cc[nH]n3)c2n1 [Compound 52],8
15,C[C@@H]1COCCN1c1cc(C2(C#N)CC2)c2ccn(-c3cc[nH]n3)c2n1 [Compound 29],580
16,C[C@@H]1COCCN1c1cc(C(C)(C)O)c2cnn(-c3cccnn3)c2n1 [Compound 67],198
17,C[C@@H]1COCCN1c1cc(C2(C#N)CCCC2)c2cnn(-c3cc[nH]n3)c2n1 [Compound 28],4
18,CC(C)c1cc(N2CCOC[C@H]2C)nc2c1ccn2-c1cc[nH]n1 [Compound 31],1420
19,C[C@@H]1COCCN1c1cc(C2(C#N)CCN(C(=O)OC(C)(C)C)CC2)c2cnn(-c3cc[nH]n3)c2n1 [Compound 81],8
20,C[C@@H]1COCCN1c1cc(N2CCNC(=O)C2)c2cnn(-c3ccn[nH]3)c2n1 [Compound 87],10
21,C[C@@H]1COCCN1c1cc(-c2ccccc2F)c2cnn(-c3ccn[nH]3)c2n1 [Compound 48],5
22,C[C@@H]1COCCN1c1cc(C2(C#N)CCN(C(=O)OC(C)(C)C)C2)c2cnn(-c3cc[nH]n3)c2n1 (stereo partly shown) [Compound 80],6
23,C[C@@H]1COCCN1c1cc(-c2ccncc2)c2ccn(-c3cc[nH]n3)c2n1 [Compound 15],1870
24,C[C@@H]1COCCN1c1cc(N(C)c2cccnc2)c2ccn(-c3cc[nH]n3)c2n1 [Compound 22],876
25,C=Cc1nn(-c2cc[nH]n2)c2nc(N3CCOC[C@H]3C)cc(C(C)(C)C#N)c12 [Compound 71],< 5
26,C[C@@H]1COCCN1c1nc2c(cnn2-c2cc[nH]n2)c(C(C)(C)C#N)c1Cl [Compound 69],554
27,C[C@@H]1COCCN1c1cc(-c2ccccc2[S+](C)[O-])c2ccn(-c3cc[nH]n3)c2n1 (stereo partly shown) [Compound 20],229
28,C[C@@H]1COCCN1c1cc(C2(O)CCN(C)CC2)c2cnn(-c3cc[nH]n3)c2n1 [Compound 60],37
29,C[C@@H]1COCCN1c1cc(C(C)(C)O)c2cnn(-c3ccccn3)c2n1 [Compound 63],11

# Now from value to molecule:
row,IC50 [nM],Compound
1,5,C[C@@H]1COCCN1c1cc(C2(C(N)=O)CCCCC2)c2cnn(-c3cc[nH]n3)c2n1 [Compound 77]
2,1650,C[C@@H]1COCCN1c1cc(-c2ccncn2)c2ccn(-c3cc[nH]n3)c2n1 [Compound 13]
3,3,C[C@@H]1COCCN1c1cc(C2(C#N)CCOCC2)c2cnn(-c3cc[nH]n3)c2n1 [Compound 73]
4,10,C[C@@H]1COCCN1c1cc(C2(O)CCC(C)(C#N)CC2)c2cnn(-c3cc[nH]n3)c2n1 (stereo partly shown) [Compound 59]
5,425,"C[C@@H]1COCCN1c1cc(-c2ccccc2S(C)(=O)=O)c2ccn(-c3cc[nH]n3)c2n1 [Compound 6, (R)-3-methyl-4-(4-(2-(methylsulfonyl)phenyl)-1-(1H-pyrazol-3-yl)-1H-pyrrolo[2,3-b]pyridin-6-yl)morpholine]"
6,24,C[C@@H]1COCCN1c1cc(C2(CN)CCCCC2)c2cnn(-c3cc[nH]n3)c2n1 [Compound 78]
7,1210,C[C@@H]1COCCN1c1cc(Nc2cccnc2)c2ccn(-c3cc[nH]n3)c2n1 [Compound 17]
8,11,C[C@@H]1COCCN1c1cc(C(C)(C#N)C2COC2)c2cnn(-c3cc[nH]n3)c2n1 (stereo partly shown) [Compound 49]
9,141,COc1cc(N2CCOC[C@H]2C)nc2c1cnn2-c1cc[nH]n1 [Compound 51]
10,22,C[C@@H]1COCCN1c1cc(C2(C#N)CCNCC2)c2cnn(-c3cc[nH]n3)c2n1 [Compound 83]
11,< 5,Cc1cc(-n2ncc3c(C(C)(C)C#N)cc(N4CCOC[C@H]4C)nc32)[nH]n1 [Compound 86]
12,5,C[C@@H]1COCCN1c1cc(S(=O)(=O)C2CC2)c2cnn(-c3cc[nH]n3)c2n1 [Compound 45]
13,56,"C[C@@H]1COCCN1c1cc(C(C)(C)C(N)=O)c2cnn(-c3cc[nH]n3)c2n1 [Compound 4, (R)-2-methyl-2-(6-(3-methylmorpholino)-1-(1H-pyrazol-3-yl)-1H-pyrazolo[3,4-b]pyridin-4-yl)propanamide]"
14,284,COC(C)(C)c1cc(N2CCOC[C@H]2C)nc2c1ccn2-c1cc[nH]n1 [Compound 30]
15,32,C[C@@H]1COCCN1c1cc(I)c2cnn(-c3ccn[nH]3)c2n1 [Compound 42]
16,40,"C[C@@H]1COCCN1c1cc(C(C)(C)O)c2cnn(-c3cc[nH]n3)c2n1 [Compound 2, (R)-2-(6-(3-methylmorpholino)-1-(1H-pyrazol-3-yl)-1H-pyrazolo[3,4-b]pyridin-4-yl)propan-2-ol]"
17,27,C[C@@H]1COCCN1c1cc(S(C)(=O)=O)c2cnn(-c3cc[nH]n3)c2n1 [Compound 44]
18,> 10000,C[C@@H]1COCCN1c1cc(-c2cccs2)c2ccn(-c3cc[nH]n3)c2n1 [Compound 41]
19,8,C[C@@H]1COCCN1c1cc(-c2cccc(S(C)(=O)=O)c2)c2cnn(-c3ccn[nH]3)c2n1 [Compound 92]
20,> 1000,C[C@@H]1COCCN1c1cc(C2(S(C)(=O)=O)CC2)c2ccn(-c3cn[nH]c3C(F)(F)F)c2n1 [Compound 37]
21,116,C[C@@H]1COCCN1c1cc(S(=O)(=O)c2ccccc2)c2cnn(-c3cc[nH]n3)c2n1 [Compound 50]
22,101,C[C@@H]1COCCN1c1cc(C(C)(C)C#N)c2ccn(-c3cc[nH]n3)c2n1 [Compound 11]

row,IC50 [nM],Compound
1,9,C[C@@H]1COCCN1c1cc(C2(C#N)CCNC2)c2cnn(-c3cc[nH]n3)c2n1 (stereo partly shown) [Compound 84]
2,104,C[C@@H]1COCCN1c1cc(C(C)(C)O)c2cnn(-c3cccc(N)n3)c2n1 [Compound 65]
3,> 10000,COc1cc(-c2cc(N3CCOC[C@H]3C)nc3c2ccn3-c2cc[nH]n2)ccn1 [Compound 39]
4,6,C[C@@H]1COCCN1c1cc(C(C)(C)C#N)c2cnn(-c3cc[nH]n3)c2n1 [Compound 24]
5,29,C[C@@H]1COCCN1c1cc(C2(C#N)CC[S+]([O-])CC2)c2cnn(-c3cc[nH]n3)c2n1 (stereo partly shown) [Compound 75]
6,17,C[C@@H]1COCCN1c1cc(C2(C#N)CNC2)c2cnn(-c3cc[nH]n3)c2n1 [Compound 82]
7,165,C[C@@H]1COCCN1c1cc(C(C)(C)C#N)c2cnn(-c3ncc[nH]3)c2n1 [Compound 90]
8,135,C[C@@H]1COCCN1c1cc(C2(C#N)CCC2)c2cnn(-c3cc[nH]n3)c2n1 [Compound 27]
9,403,"Cc1cn(-c2cc[nH]n2)c2nc(N3CCOC[C@H]3C)cc(C(C)(C)C#N)c12 [Compound 7, (R)-2-methyl-2-(3-methyl-6-(3-methylmorpholino)-1-(1H-pyrazol-3-yl)-1H-pyrrolo[2,3-b]pyridin-4-yl)propanenitrile]"
10,94,C[C@@H]1COCCN1c1cc(-c2nncs2)c2cnn(-c3cc[nH]n3)c2n1 [Compound 72]
11,1150,Cc1ccc(-c2cc(N3CCOC[C@H]3C)nc3c2ccn3-c2cc[nH]n2)nn1 [Compound 14]
12,23,C[C@@H]1COCCN1c1cc(N2CCCS2(=O)=O)c2cnn(-c3cc[nH]n3)c2n1 [Compound 54]
13,1520,COc1ccc(-c2cc(N3CCOC[C@H]3C)nc3c2ccn3-c2cc[nH]n2)cn1 [Compound 16]
14,1940,C[C@@H]1COCCN1c1cc(C(=O)N2CCOCC2)c2ccn(-c3cc[nH]n3)c2n1 [Compound 18]
15,> 1000,Cc1c[nH]nc1-n1ccc2c(C3(S(C)(=O)=O)CC3)cc(N3CCOC[C@H]3C)nc21 [Compound 36]
16,31,C[C@@H]1COCCN1c1cc(-c2ccc(S(C)(=O)=O)cc2)c2cnn(-c3ccn[nH]3)c2n1 [Compound 89]
17,264,C[C@@H]1COCCN1c1cc(C(N)=O)c2cnn(-c3cc[nH]n3)c2n1 [Compound 23]
18,1340,C[C@@H]1COCCN1c1cc(C(C)(C)C#N)c2cnn(-c3n[nH]cc3F)c2n1 [Compound 68]
19,379,C[C@@H]1COCCN1c1cc(C(C)(C)C(N)=O)c2ccn(-c3cc[nH]n3)c2n1 [Compound 12]
20,451,C[C@@H]1COCCN1c1cc(-c2ccnn2C)c2ccn(-c3cc[nH]n3)c2n1 [Compound 34]
21,828,COc1ccc(-c2cc(N3CCOC[C@H]3C)nc3c2c(C)cn3-c2cc[nH]n2)cn1 [Compound 21]
